Measured values taken from patent US20260102387A1, “IMMUNOSUPPRESSIVE COMPOUNDS” (UNIVERSITÄT BASEL, priority 2022, published 2026).
Like-named read-outs stand apart in the source and are kept apart here.

Columns and labels:
[1] = system: coronin 1 promoter; assay: EC50 analysis for coronin 1 promoter driven GFP inhibition by flow cytometry in RBL cells; format: cell-based; details: RBL, RBL cells, 48-65 h, flow cytometry
Description: RBL cells that had been incubated with the indicated calcium channel blockers (amlodipine (3.125 μM) and verapamil (8 μM) concentrations for 48 h were analyzed by flow cytometry for any alteration in coronin 1 promoter driven GFP fluorescence. The results reveal no effect of calcium channel blockers on coronin 1 promoter activity (FIG. 4).
(§1) RBL cells expressing GFP under coronin 1 promoter and optionally with RBL cells expressing RFP under CMV promoter were mixed in equal numbers and incubated with the compounds at indicated concentrations for 48-65 h and analyzed by flow cytometry for alteration in coronin 1 promoter (GFP fluorescence), CMV promoter (RFP fluorescence) values. In addition, the cells were labelled with live-dead marker for assessing cell viability status by flow cytometry. Cycloheximide (CHX) serves as positive control and DMSO serves as negative controls. Effective Concentration (EC50) values for coronin 1 promoter inhibition via GFP fluorescence analysis, non-specific promoter inhibition via CMV promoter driven-RFP fluorescence analysis and cell viability via live/dead staining as a measure for toxicity in flow cytometry for compounds (10-22 and 50a-65a) are shown in Table 6 and Table 7. Based on the EC50 analysis of the inhibition of coronin 1 promoter driven GFP fluorescence the (4S,7R)-configurated eutomers were identified (Structures FIG. 9A-C). This is exemplified for compounds containing two stereocenters by eutomers 11c and 13a. […] Subsequent EC50 evaluations (Table 7) were performed with compound 13a as standard for relative potency normalized to a value of 1.00 (relative potency calculated as [EC50 GFP inhibition 13a]/[EC50 GFP inhibition compound of interest]).

[2] = system: CMV promoter; assay: EC50 analysis for CMV promoter driven RFP inhibition (non-specific activity) by flow cytometry in RBL cells; format: cell-based, cytomegalovirus; details: 48-65 h, read-out: EC50 RFP alteration
Description: as §1

[3] = system: RBL cells; assay: Cell viability by live-dead staining (cytotoxicity), flow cytometry; format: cell-based, Rat; details: Rattus norvegicus, RBL, cell viability via live/dead staining, 48-65 h, read-out: EC50 Toxicity
Description: as §1

[4] = system: coronin 1 promoter; assay: Fluorescence-based screening assay: coronin 1 promoter driven GFP in RBL cells (microplate reader / microscopy); format: cell-based; details: RBL, 48 h, read-out: GFP values (%)
Description: The murine coronin 1 promoter sequences of SEQ ID NO: 1-6 were each cloned into a plasmid lacking a promoter (promoterless) but containing a destabilized Green Fluorescence Protein (GFP) cassette. Rat Basophil Leukemia (RBL) cells were transfected with the plasmids, stable GFP expressing cells were enriched, incubated with various compounds and assessed for coronin 1 promoter inhibition by assessing green fluorescence values (FIG. 2).
The plasmids were independently transfected into immune cells (Rat basophil Leukemia, RBL cells) to generate green and red fluorescent RBL cells that were subsequently enriched by means of flow cytometry. These cells were then mixed in equal ratio (1:1) and incubated in a 96 well plate at 100,000 cells/well in a volume of 200 μl of phenol red free RPMI supplemented with 8% fetal calf serum, L-glutamate and antibiotics (penicillin, […]) from available chemical libraries. At defined time points (8 h, 24 h and 48 h), the GFP and RFP fluorescence was measured using a 96 well microplate reader (Synergy, BioTek Instruments). […] Selected compounds show different levels of modulation of coronin 1 promoter driven GFP and CMV promoter driven RFP fluorescence. GFP and RFP fluorescence were analyzed with a microplate reader upon incubation with the top coronin 1 promoter inhibiting compounds. Shown are percentage of GFP reduction (left column) and percentage of RFP reduction (right column) for the compounds at 5 μg/ml concentration at 48 h. Cycloheximide (CHX) serves as positive control whereas media and DMSO serve as negative controls. […] Cells were imaged using a fluorescence microscope to validate fluorescence inhibition (FIG. 3A) and as well assess morphology and viability (in addition to GFP down regulation confirmation). In addition, quantitative Polymerase Chain Reaction (qPCR) for coronin 1 mRNA transcripts reveal reduction with compound 11 (FIG. 3B). The primers used for the qPCR on RBL cells are listed below as follows;

[5] = system: early cytomegalovirus promoter; assay: Screening assay control: CMV promoter driven RFP in RBL cells (microplate reader); format: cell-based; details: 48 h
Description: As an unrelated promoter, the early cytomegaloviral promoter element was cloned into a promoterless Red Fluorescence Protein (RFP) expression plasmid. Rat Basophil Leukemia (RBL) cells were transfected with the plasmid, stable RFP expressing cells enriched, incubated with various compounds and were assessed for red fluorescence values. Analyzing the inhibition of an unrelated promoter (in this case, early cytomegalovirus promoter) that drove Red Fluorescence Protein (RFP) expression assessed non-specificity of the compound under analysis.
The plasmids were independently transfected into immune cells (Rat basophil Leukemia, RBL cells) to generate green and red fluorescent RBL cells that were subsequently enriched by means of flow cytometry. These cells were then mixed in equal ratio (1:1) and incubated in a 96 well plate at 100,000 cells/well in a volume of 200 μl of phenol red free RPMI supplemented with 8% fetal calf serum, L-glutamate and antibiotics (penicillin, streptomycin) and various compounds (3 and 5 μg/ml concentrations) from available chemical libraries. At defined time points (8 h, 24 h and 48 h), the GFP and RFP fluorescence was measured using a 96 well microplate reader (Synergy, BioTek Instruments). […] Selected compounds show different levels of modulation of coronin 1 promoter driven GFP and CMV promoter driven RFP fluorescence. GFP and RFP fluorescence were analyzed with a microplate reader upon incubation with the top coronin 1 promoter inhibiting compounds. Shown are percentage of GFP reduction (left column) and percentage of RFP reduction (right column) for the compounds at 5 μg/ml concentration at 48 h. Cycloheximide (CHX) serves as positive control whereas media and DMSO serve as negative controls. […] Cells were imaged using a fluorescence microscope to validate fluorescence inhibition (FIG. 3A) and as well assess morphology and viability (in addition to GFP down regulation confirmation). In addition, quantitative Polymerase Chain Reaction (qPCR) for coronin 1 mRNA transcripts reveal reduction with compound 11 (FIG. 3B). The primers used for the qPCR on RBL cells are listed below as follows;

[6] = system: BRD2, BRD3 and BRD4 proteins; details: reported TPP data; cited from earlier work
[7] = 5 μg/ml, microplate reader, DMSO = 100
[8] = 5 μg/ml, microplate reader, DMSO = 100, read-out: RFP values (%)

COc1ccccc1C1CC(=O)C2=C(C1)NC(C)=C(C(=O)OC1CCOCC1)C2c1cccc(O)c1 (stereo not shown) [compound 13, tetrahydro-2H-pyran-4-yl-4-(3-hydroxyphenyl)-7-(2-methoxyphenyl)-2-methyl-5-oxo-1,4,5,6,7,8-hexahydro-3-quinolinecarboxylate]
EC50 [1]: 120 nM
EC50 [2]: > 2500 nM
EC50 [3]: > 2500 nM

COc1ccccc1C1CC(=O)C2=C(C1)NC(C)=C(C(=O)OCC1CCCO1)C2c1cccc(O)c1 (stereo not shown) [Comp. 12, tetrahydro-2-furanylmethyl-4-(3-hydroxyphenyl)-7-(2-methoxyphenyl)-2-methyl-5-oxo-1,4,5,6,7,8-hexahydro-3-quinolinecarboxylate]
activity at 5 µg/mL [4, 7]: 46%
activity at 5 µg/mL [5, 8]: 153%
EC50 [1]: 340 nM
EC50 [2]: > 1000 nM
EC50 [3]: > 3000 nM

Cc1sc2c(c1C)C(c1ccc(Cl)cc1)=N[C@@H](CC(=O)OC(C)(C)C)c1nnc(C)n1-2 [JQ1]
thermal stabilization of BRD2, BRD3 and BRD4 proteins [6]: thermal stabilization

COc1cc(OC)c2c(=O)[nH]c(-c3cc(C)c(OCCO)c(C)c3)nc2c1 [RVX-208]
thermal stabilization of BRD2, BRD3 and BRD4 proteins [6]: thermal stabilization

CC(=O)Nc1c(F)cc(C(=O)N[C@H]2CC[C@H](O)CC2)cc1O[C@@H](C)c1ccccc1 [IBET-BD2]
thermal stabilization of BRD2, BRD3 and BRD4 proteins [6]: thermal stabilization

COc1cc2c(cc1-c1c(C)noc1C)ncc1[nH]c(=O)n([C@H](C)c3ccccn3)c12 [IBET-151]
thermal stabilization of BRD2, BRD3 and BRD4 proteins [6]: thermal stabilization

C[C@@H]1C[C@@H]([C@H](O)CC2CC(=O)NC(=O)C2)C(=O)[C@@H](C)C1 [CHX, cycloheximide, reference compound]
activity at 5 µg/mL [4]: 21%
activity at 5 µg/mL ([5]; read-out: RFP values (%)): 40%

COc1ccccc1C1CC(=O)C2=C(C1)NC(C)=C(C(=O)OCC1CCCO1)C2c1cccs1 (stereo not shown) [Comp. 1, tetrahydro-2-furanylmethyl-7-(2-methoxyphenyl)-2-methyl-5-oxo-4-(2-thienyl)-1,4,5,6,7,8-hexahydro-3-quinolinecarboxylate]
activity at 5 µg/mL [4, 7]: 35%
activity at 5 µg/mL [5, 8]: 66%

COC(=O)C1=C(C)NC2=C(C(=O)CC(c3ccc(Cl)cc3)C2)C1c1cccc(O)c1 (stereo not shown) [Comp. 22, methyl 7-(4-chlorophenyl)-4-(3-hydroxyphenyl)-2-methyl-5-oxo-1,4,5,6,7,8-hexahydroquinoline-3-carboxylate]
activity at 5 µg/mL [4, 7]: 55%
activity at 5 µg/mL [5, 8]: 70%

COc1ccccc1C1CC(=O)C2=C(C1)NC(C)=C(C(=O)OCC1CCCO1)C2c1ccccc1F (stereo not shown) [Comp. 10, tetrahydro-2-furanylmethyl-4-(2-fluorophenyl)-7-(2-methoxyphenyl)-2-methyl-5-oxo-1,4,5,6,7,8-hexahydro-3-quinolinecarboxylate]
activity at 5 µg/mL [4, 7]: 48%
activity at 5 µg/mL [5, 8]: 110%
EC50 [1]: 800 nM
EC50 [2]: 1000 nM
EC50 [3]: > 7500 nM

COC(=O)C1=C(C)NC2=C(C(=O)CC(c3ccccc3OC)C2)C1c1cccs1 (stereo not shown) [Comp. 9, methyl-7-(2-methoxyphenyl)-2-methyl-5-oxo-4-(2-thienyl)-1,4,5,6,7,8-hexahydro-3-quinolinecarboxylate]
activity at 5 µg/mL [4, 7]: 58%
activity at 5 µg/mL [5, 8]: 97%

COc1ccccc1C1CC(=O)C2=C(C1)NC(C)=C(C(=O)OCC1CCOCC1)C2c1cccc(O)c1 (stereo not shown) [compound 18, (tetrahydro-2H-pyran-4-yl)methyl 4-(3-hydroxyphenyl)-7-(2-methoxyphenyl)-2-methyl-5-oxo-1,4,5,6,7,8-hexahydroquinoline-3-carboxylate]
EC50 [1]: 200 nM
EC50 [2]: > 2500 nM
EC50 [3]: > 2500 nM

COC(=O)C1=C(C)NC2=C(C(=O)CC(c3cccs3)C2)C1c1cccc(O)c1 (stereo not shown) [Comp. 5, methyl-4-(3-hydroxyphenyl)-2-methyl-5-oxo-7-(2-thienyl)-1,4,5,6,7,8-hexahydro-3-quinolinecarboxylate]
activity at 5 µg/mL [4, 7]: 74%
activity at 5 µg/mL [5, 8]: 108%

CC1=C(C(=O)OCC2CCCO2)C(c2cccc([N+](=O)[O-])c2)C2=C(CC(c3cccs3)CC2=O)N1 (stereo not shown) [Comp. 6, tetrahydro-2-furanylmethyl-2-methyl-4-(3-nitrophenyl)-5-oxo-7-(2-thienyl)-1,4,5,6,7,8-hexahydro-3-quinolinecarboxylate]
activity at 5 µg/mL [4, 7]: 68%
activity at 5 µg/mL [5, 8]: 75%

CC1=C(C(=O)OCC2CCCO2)C(c2ccsc2)C2=C(C[C@@H](c3cccs3)CC2=O)N1 (mixture of isomers) [Comp. 7, tetrahydro-2-furanylmethyl-2-methyl-5-oxo-7-(2-thienyl)-4-(3-thienyl)-1,4,5,6,7,8-hexahydro-3-quinolinecarboxylate]
activity at 5 µg/mL [4, 7]: 77%
activity at 5 µg/mL [5, 8]: 95%
